Assay results reported in US12310963B2, “Pyrazole derivatives and use thereof” (Tarapeutics Science Inc., priority 2019, dated 2025).

Legend:
[1] = tested on: BaF3; experiment: Growth of parental BaF3 cells, Cell Titer-Glo, 72 h; format: cell-based; conditions: Mus musculus
From the text: (§1) In this example, mouse primary B cell BaF3 (purchased from ATCC, U.S.A.) was used. In addition, in this example, mouse BaF3-tel-PDGFRα (stably expressing PDGFRα kinase), mouse BaF3-tel-PDGFRβ (stably expressing PDGFRβ kinase), BaF3-P210 (stably expressing ABL kinase), BaF3-P210-T315I (stably expressing ABL-T315I kinase), BaF3-FL-BRAF-V600E (stably expressing BRAF-V600E kinase), BaF3-TEL-cKIT (stably expressing cKIT kinase), BaF3-TEL-VEGFR2 (stably expressing VEGFR2 kinase), BaF3-TEL-FGFR2 (stably expressing FGFR2 kinase) were also used. The above-mentioned cell trains were all constructed in our laboratory by the method as follows. The sequences of human BCR-ABL (P210 or P210/T315I mutated), full-length BRAF-V600E, cKIT, VEGFR2, FGFR2, PDGFRα, PDGFRβ kinase region were amplified respectively via PCR, and inserted respectively into a MSCV-Puro vector (purchased from Clontech) having a N-terminal TEL fragment and/or NPM fragment and/or TPR fragment, and stably transferred into mouse BaF3 cells by the retroviral method, and the growth factor IL-3 was removed. Eventually, cell lines which are transferred into proteins depending on PDGFRα, PDGFRβ were obtained.
(§2) In this example, solutions of the test compound at different concentrations (0.000508 μM, 0.00152 μM, 0.00457 μM, 0.0137 μM, 0.0411 μM, 0.123 μM, 0.370 μM, 1.11 μM, 3.33 μM, 10 μM) were added to the above cells. The cells were incubated for 72 hours.

[2] = tested on: BaF3-tel-PDGFRβ (stably expressing PDGFRβ kinase); experiment: Growth of BaF3-tel-PDGFRβ cells, Cell Titer-Glo, 72 h; format: cell-based, mouse
From the text: as §1, §2

[3] = tested on: BaF3-tel-PDGFRα (stably expressing PDGFRα kinase); experiment: Growth of BaF3-tel-PDGFRα cells, Cell Titer-Glo, 72 h; format: cell-based, mouse
From the text: as §1, §2

Row | GI50 [2] [nM] | GI50 [3] [nM] | Structure (SMILES) | GI50 [1] [nM]
1 | < 10 | < 10 | Cc1ccc(NC(=O)c2cccc(Cl)n2)cc1-n1cc(-c2cncc(N3CCN(C)CC3)c2)nn1 [Compound 22, 6-chloro-N-(4-methyl-3-(4-(5-(4-methylpiperazin-1-yl)pyridin-3-yl)-1H-1,2,3-triazol-1-yl)phenyl)picolinamide] | 960
2 | < 10 | < 10 | Cc1ccc(NC(=O)c2cncc(C(F)(F)F)c2)cc1-n1cc(-c2cncc(N3CC4(COC4)C3)c2)cn1 [Compound 34, N-(3-(4-(5-(2-oxa-6-aza-spiro[3.3]hept-6-yl]pyridin-3-yl)-1H-pyrazol-1-yl)-4-methylphenyl)-5-(trifluoromethyl)nicotinamide] | > 10000
3 | < 10 | < 10 | CN1CCN(c2cncc(-c3cn(-c4cc(NC(=O)c5cncc(C(F)(F)F)c5)ccc4F)nn3)c2)CC1 [Compound 26, N-(4-fluoro-3-(4-(5-(4-methylpiperazin-1-yl)pyridin-3-yl)-1H-1,2,3-triazol-1-yl)phenyl)-5-(trifluoromethyl)nicotinamide] | 4740
4 | < 10 | < 10 | Cc1ccc(NC(=O)c2cncc(C(F)(F)F)c2)cc1-n1cc(-c2cncc(N3CCN(C)CC3)c2)nn1 [Compound 20, N-(4-methyl-3-(4-(5-(4-methylpiperazin-1-yl)pyridin-3-yl)-1H-1,2,3-triazol-1-yl)phenyl)-5-(trifluoromethyl)nicotinamide] | 5070
5 | < 10 | < 10 | CN1CCN(c2cncc(-c3cn(-c4cc(NC(=O)c5cccc(F)n5)ccc4F)nn3)c2)CC1 [Compound 29, 6-fluoro-N-(4-fluoro-3-(4-(5-(4-methylpiperazin-1-yl)pyridin-3-yl)-1H-1,2,3-triazol-1-yl)phenyl)picolinamide] | 2840
6 | < 10 | < 10 | Cc1ccc(NC(=O)c2ccnc(C(F)(F)F)c2)cc1-n1cc(-c2cncc(N3CC4(COC4)C3)c2)cn1 [Compound 33, N-(3-(4-(5-(2-oxa-6-aza-spiro[3.3]hept-6-yl]pyridin-3-yl)-1H-pyrazol-1-yl)-4-methylphenyl)-2-(trifluoromethyl)isonicotinamide] | 6490
7 | 1 | < 0.3 | Cc1ccc(NC(=O)c2ccnc(C(F)(F)F)c2)cc1-n1cc(-c2cncc(OC3COC3)c2)cn1 [Compound 7, N-(4-methyl-3-(4-(5-(oxetan-3-yloxy)pyridin-3-yl)-1H-pyrazol-1-yl)phenyl)-2-(trifluoromethyl)isonicotinamide] | > 10000
8 | 1.1 |  | Cc1ccc(NC(=O)c2ccnc(C(F)(F)F)c2)cc1-n1cc(-c2cnccc2OCC2CCCC2)cn1 [Compound 11, N-(3-(4-(4-(cyclopentylmethoxy)pyridin-3-yl)-1H-pyrazol-1-yl)-4-methylphenyl)-2-(trifluoromethyl)isonicotinamide] | > 10000

Further lines, the molecule ahead of its results:

Row | Structure (SMILES) | GI50 [2] [nM] | GI50 [3] [nM] | GI50 [1] [nM]
9 | Cc1ccc(NC(=O)c2ccnc(C(F)(F)F)c2)cc1-n1cc(-c2cncc(N3CCN(C)CC3)c2)nn1 [Compound 19, N-(4-methyl-3-(4-(5-(4-methylpiperazin-1-yl)pyridin-3-yl)-1H-1,2,3-triazol-1-yl)phenyl)-2-(trifluoromethyl)isonicotinamide] | < 10 | < 10 | > 10000
10 | Cc1ccc(NC(=O)c2cncc(C(F)(F)F)c2)cc1-n1cc(-c2cncc(N3CCN(C)CC3)c2)cn1 [Compound 16, N-(4-methyl-3-(4-(5-(4-methylpiperazin-1-yl)pyridin-3-yl)-1H-pyrazol-1-yl)phenyl)-5-(trifluoromethyl)nicotinamide] | < 1.5 | < 1.5 | > 10000
11 | Cc1ccc(NC(=O)c2cncc(C(F)(F)F)c2)cc1-n1cc(-c2cncc(N3CC4(COC4)C3)c2)nn1 [Compound 40, N-(3-(4-(5-(2-oxa-6-aza-spiro[3.3]hept-6-yl]pyridin-3-yl)-1H-1,2,3-triazol-1-yl)-4-methylphenyl)-5-(trifluoromethyl)nicotinamide] | < 10 | < 10 | 9990
12 | Cc1ccc(NC(=O)c2cccc(F)n2)cc1-n1cc(-c2cncc(N3CCN(C)CC3)c2)cn1 [Compound 14, 6-fluoro-N-(4-methyl-3-(4-(5-(4-methylpiperazin-1-yl)pyridin-3-yl)-1H-pyrazol-1-yl)phenyl)picolinamide] | < 1.5 | < 1.5 | 8400
13 | Cc1ccc(NC(=O)c2cc(C(F)(F)F)ccn2)cc1-n1cc(-c2cncc(N3CCN(C)CC3)c2)cn1 [Compound 15, N-(4-methyl-3-(4-(5-(4-methylpiperazin-1-yl)pyridin-3-yl)-1H-pyrazol-1-yl)phenyl)-4-(trifluoromethyl)picolinamide] | < 1.5 | < 1.5 | 3900
14 | Cc1ccc(NC(=O)c2ccnc(C(F)(F)F)c2)cc1-n1cc(-c2cncc(N3CCN(C)CC3)c2)cn1 [Compound 2, N-(4-methyl-3-(4-(5-(4-methylpiperazin-1-yl)pyridin-3-yl)-1H-pyrazol-1-yl)phenyl)-2-(trifluoromethyl)isonicotinamide] | 40 | 2.8 | 9290
15 | Cc1ccc(NC(=O)c2cc(C(F)(F)F)ccn2)cc1-n1cc(-c2cncc(N3CCN(C)CC3)c2)nn1 [Compound 21, N-(4-methyl-3-(4-(5-(4-methylpiperazin-1-yl)pyridin-3-yl)-1H-1,2,3-triazol-1-yl)phenyl)-4-(trifluoromethyl)picolinamide] | < 10 | < 10 | 2840
16 | Cc1ccc(NC(=O)c2cccc(F)n2)cc1-n1cc(-c2cncc(N3CC4(COC4)C3)c2)cn1 [Compound 37, N-(3-(4-(5-(2-oxa-6-aza-spiro[3.3]hept-6-yl]pyridin-3-yl)-1H-pyrazol-1-yl)-4-methylphenyl)-6-fluoropicolinamide] | < 10 | < 10 | 9850
17 | Cc1ccc(NC(=O)c2cccc(C(F)(F)F)n2)cc1-n1cc(-c2cnccc2OCC2CCOCC2)cn1 [Compound 13, N-(4-methyl-3-(4-(4-((tetrahydropyran-4-yl)methoxy)pyridin-3-yl)-1H-pyrazol-1-yl)phenyl)-6-(trifluoromethyl)picolinamide] | 5.5 | 1.6 | > 10000
18 | Cc1ccc(NC(=O)c2cccc(C(F)(F)F)n2)cc1-n1cc(-c2cnccc2OCC2CCCO2)cn1 (stereo not shown) [Compound 8, N-(4-methyl-3-(4-(4-((tetrahydrofuran-2-yl)methoxy)pyridin-3-yl)-1H-pyrazol-1-yl)phenyl)-6-(trifluoromethyl)picolinamide] | 1.3 |  | > 10000
19 | Cc1ccc(NC(=O)c2cccc(Cl)n2)cc1-n1cc(-c2cncc(N3CC4(COC4)C3)c2)cn1 [Compound 36, N-(3-(4-(5-(2-oxa-6-aza-spiro[3.3]hept-6-yl]pyridin-3-yl)-1H-pyrazol-1-yl)-4-methylphenyl)-6-chloropicolinamide] | < 10 | < 10 | 9760
20 | Cc1ccc(NC(=O)c2cccc(C(F)(F)F)n2)cc1-n1cc(-c2cnccc2OCCN2CCOCC2)cn1 [Compound 4, N-(4-methyl-3-(4-(4-(2-morpholinoethoxy)pyridin-3-yl)-1H-pyrazol-1-yl)phenyl)-6-(trifluoromethyl)picolinamide] | 3.2 | < 0.3 | ~10000
21 | Cc1ccc(NC(=O)c2ccnc(C(F)(F)F)c2)cc1-n1cc(-c2cnccc2OCC2CCCO2)cn1 (stereo not shown) [Compound 9, N-(4-methyl-3-(4-(4-((tetrahydrofuran-2-yl)methoxy)pyridin-3-yl)-1H-pyrazol-1-yl)phenyl)-2-(trifluoromethyl)isonicotinamide] | < 0.3 |  | > 10000
22 | CN1CCN(c2cncc(-c3cn(-c4cc(NC(=O)c5cccc(Cl)n5)ccc4F)nn3)c2)CC1 [Compound 28, 6-chloro-N-(4-fluoro-3-(4-(5-(4-methylpiperazin-1-yl)pyridin-3-yl)-1H-1,2,3-triazol-1-yl)phenyl)picolinamide] | < 10 | < 10 | 3900
23 | Cc1ccc(NC(=O)c2cccc(C(F)(F)F)n2)cc1-n1cc(-c2cnccc2OCC2CCCC2)cn1 [Compound 10, N-(3-(4-(4-(cyclopentylmethoxy)pyridin-3-yl)-1H-pyrazol-1-yl)-4-methylphenyl)-6-(trifluoromethyl)picolinamide] | 62 |  | > 10000
24 | Cc1ccc(NC(=O)c2ccnc(C(F)(F)F)c2)cc1-n1cc(-c2cncc(N3CCOCC3)c2)cn1 [Compound 12, N-(4-methyl-3-(4-(5-morpholinopyridin-3-yl)-1H-pyrazol-1-yl)phenyl)-2 (trifluoromethyl)isonicotinamide] | 1 |  | ~10000
